Structures are written as SMILES. Calls of active or inactive are those of the source. Rule as the data show it, for most assays here: actives have a measured EC50 and inactives only a lower limit. Where only a bound is given, the exact number is not on record here.

Assay [1] in a line: NIH3T3 cell viability loss – ATP luminescence, mouse fibroblasts, counter-screen, dose response (AID 2010).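 Also: cells exposed to compound for about 90 hours before reading.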 The format is functional, cell-based. (The purpose of a counterscreen is to sort out artefacts and off-target activity.)
Assay [2] can be described thus: Trypanosoma cruzi growth suppression in host cells – NIH3T3 host cells, beta-gal luminescence, confirmation (AID 2044).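 Also: intracellular parasites grown in NIH/3T3 mouse fibroblasts as host cells; luminescent beta-galactosidase reporter signal from transgenic T. cruzi replicating inside host cells; inhibitors lower the luminescence signal.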 The class given is functional, cell-based.
The target of assay [3] is T1, Protein RecA (Mycobacterium tuberculosis, UniProt P9WHJ3).
T1 sequence (P9WHJ3 whole entry): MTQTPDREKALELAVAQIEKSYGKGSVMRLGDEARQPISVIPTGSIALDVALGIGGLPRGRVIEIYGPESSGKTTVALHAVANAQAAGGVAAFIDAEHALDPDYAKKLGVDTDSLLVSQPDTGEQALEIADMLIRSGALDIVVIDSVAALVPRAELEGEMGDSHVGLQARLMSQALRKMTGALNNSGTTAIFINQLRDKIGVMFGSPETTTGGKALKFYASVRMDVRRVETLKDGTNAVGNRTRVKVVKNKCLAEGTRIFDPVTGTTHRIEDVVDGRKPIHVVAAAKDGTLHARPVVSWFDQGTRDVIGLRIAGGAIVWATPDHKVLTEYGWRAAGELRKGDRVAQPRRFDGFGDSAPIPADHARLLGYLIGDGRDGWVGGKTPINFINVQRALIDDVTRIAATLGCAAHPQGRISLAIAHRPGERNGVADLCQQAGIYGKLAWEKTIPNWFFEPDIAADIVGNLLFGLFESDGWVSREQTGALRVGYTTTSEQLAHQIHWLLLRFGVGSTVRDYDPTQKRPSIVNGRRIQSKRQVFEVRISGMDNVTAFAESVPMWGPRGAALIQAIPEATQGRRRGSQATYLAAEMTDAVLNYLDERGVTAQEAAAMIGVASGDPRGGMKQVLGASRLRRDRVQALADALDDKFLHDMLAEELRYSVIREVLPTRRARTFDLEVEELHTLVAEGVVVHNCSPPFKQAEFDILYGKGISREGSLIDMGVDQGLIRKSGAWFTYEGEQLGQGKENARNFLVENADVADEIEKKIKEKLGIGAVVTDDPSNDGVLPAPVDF
Put plainly: Fluorescence Cell-Free Homogeneous Dose Retest to Identify Inhibitors of RecA-Intein Splicing Activity. [Related pubchem assays (depositor defined):AID2097, AID2223, AID489010, AID492950]. The class given is functional.

Assay [4] concerns the target T2, Replicative DNA helicase DnaB (Mycobacterium tuberculosis, UniProt P9WMR3).
T2 sequence (P9WMR3 whole entry): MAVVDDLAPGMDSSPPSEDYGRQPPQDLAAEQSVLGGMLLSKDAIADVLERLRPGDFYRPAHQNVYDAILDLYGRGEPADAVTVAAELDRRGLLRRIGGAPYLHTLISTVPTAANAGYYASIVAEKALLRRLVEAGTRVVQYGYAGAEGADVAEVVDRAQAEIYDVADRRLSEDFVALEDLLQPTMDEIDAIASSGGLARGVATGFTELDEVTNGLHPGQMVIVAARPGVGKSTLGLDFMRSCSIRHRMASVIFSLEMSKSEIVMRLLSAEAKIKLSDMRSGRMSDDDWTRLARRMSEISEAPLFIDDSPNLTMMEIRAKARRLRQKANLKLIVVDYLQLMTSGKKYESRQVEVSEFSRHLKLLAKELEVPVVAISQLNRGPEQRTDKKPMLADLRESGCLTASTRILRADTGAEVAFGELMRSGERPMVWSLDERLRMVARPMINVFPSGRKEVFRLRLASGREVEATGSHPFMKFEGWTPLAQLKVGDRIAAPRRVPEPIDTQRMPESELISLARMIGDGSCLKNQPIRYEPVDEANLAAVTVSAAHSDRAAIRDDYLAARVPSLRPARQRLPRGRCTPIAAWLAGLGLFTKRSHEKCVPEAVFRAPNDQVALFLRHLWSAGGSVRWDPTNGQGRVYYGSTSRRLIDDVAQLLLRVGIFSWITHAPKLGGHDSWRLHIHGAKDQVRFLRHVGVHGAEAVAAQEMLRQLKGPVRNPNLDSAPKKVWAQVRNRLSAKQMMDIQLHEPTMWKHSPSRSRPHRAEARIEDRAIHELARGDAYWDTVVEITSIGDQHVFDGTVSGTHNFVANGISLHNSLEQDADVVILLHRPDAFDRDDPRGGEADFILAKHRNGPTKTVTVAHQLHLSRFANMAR
Nature of the assay: DnaB intein splicing inhibitors, dose response, biochemical, cell-free fluorescence (AID 449749). The format is functional.

Assay [5] concerns the target Cytochrome P450 2C9 (Homo sapiens, UniProt P11712).
For assay [6], the system named is Streptococcus sp. 'group A'. Nature of the assay: Streptococcus pyogenes SK(-)GAS viability under kanamycin – luminescence, BacTiterGlo, confirmation, counter-screen for streptokinase expression inhibitor project, dose response (AID 1900). The class given is functional, organism-based.
Assay [7] relates to Streptococcus. Put plainly: GAS UMAA2166 growth inhibition – luminescence, BacTiterGlo, counter-screen for streptokinase expression inhibitor project, dose response (AID 1915).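 Also: potency for reduction of bacterial viability or growth.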 The class given is functional, organism-based.

Cytochrome P450 2C9, sequence (P11712 whole entry): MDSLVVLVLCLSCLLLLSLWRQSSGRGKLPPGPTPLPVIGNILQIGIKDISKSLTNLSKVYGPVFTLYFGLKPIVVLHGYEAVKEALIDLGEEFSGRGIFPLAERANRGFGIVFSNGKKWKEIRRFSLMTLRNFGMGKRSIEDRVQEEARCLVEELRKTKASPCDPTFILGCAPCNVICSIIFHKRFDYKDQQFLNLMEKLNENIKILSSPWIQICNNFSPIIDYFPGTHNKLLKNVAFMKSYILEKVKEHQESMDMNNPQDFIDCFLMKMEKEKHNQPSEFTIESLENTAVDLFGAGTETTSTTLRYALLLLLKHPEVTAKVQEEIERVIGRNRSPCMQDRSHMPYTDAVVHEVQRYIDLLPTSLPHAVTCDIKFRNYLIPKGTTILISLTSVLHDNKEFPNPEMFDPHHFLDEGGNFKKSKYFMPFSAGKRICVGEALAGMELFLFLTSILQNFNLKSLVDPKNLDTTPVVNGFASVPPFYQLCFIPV

For `O=C(NCc1ccc2c(c1)OCO2)c1ccc(N2CCCCCC2)c([N+](=O)[O-])c1`, the values for the EC50 in assay [1] and in assay [2] were > 60 µM (not active) and 0.709 µM (active), respectively.
The matching figures for `O=c1c2c3c(sc2n(CCN2CCCC2)c(=O)n1Cc1ccco1)CCCCC3`: > 30 µM (not active) and 0.331 µM (active).
As to `C/C(CC(=O)Nc1ccccn1)=N\NC(=O)Cc1cccc2ccccc12`, in assay [3], the EC50 (in general, the concentration needed to bring the measured effect to its halfway point) is 2.73 µM (active). Further, the half-maximal activity concentration (AC50) (in general, the concentration giving half of the maximal activity seen) in assay [4] is 3.54 µM (active).
As to `CCOC(=O)CN1N=C(/C=C/c2ccc(C)cc2)CCC1=O`, the concentration at half-maximal activity (AC50) in assay [5] was 28.2 µM (inconclusive).
For `COc1ccc([N+](=O)[O-])cc1NC(=O)COC(=O)C1CC1`, the EC50 in assay [1] was > 60 µM (inconclusive); in assay [2], > 60 µM (not active).
Consider `COc1ccc(C(=O)CSc2nc(O)cc(C(F)(F)F)c2C#N)cc1`, for which the EC50 in assay [6] is 3.58 µM (active); in assay [7], 15.4 µM (active).
The corresponding values for `O=C(N/N=C/c1cc(Br)cc([N+](=O)[O-])c1O)c1ccc(NC(=O)c2ccc(F)cc2)cc1` are 2.34 µM (active) and 6.54 µM (active).
`Cc1ccn2c(Nc3ccccc3C)c(-c3ccncc3)nc2c1`: the EC50 in assay [1] was > 60 µM (not active); in assay [2], 0.56 µM (active).
Regarding `Cc1ccc(N=C(S)c2nc3ccccc3[nH]2)c(C)c1`, the EC50 in assay [6] was 2.12 µM (active); in assay [7], > 150 µM (not active).
In the case of `O=C(Cn1cnc([N+](=O)[O-])n1)NCc1ccccc1`, the figures for the EC50 in assay [1] and in assay [2] were > 60 µM (not active) and 0.479 µM (active), respectively.
Take `CCOc1ccccc1Oc1coc2cc(OC(=O)c3ccco3)ccc2c1=O`: the EC50 in assay [3] was 35.7 µM (active). Also, the AC50 in assay [4] was > 380 µM (inactive).
With `CCOC(=O)C1(Cc2ccccc2)CCN(Cc2cnc(N3CCOCC3)s2)CC1`, the EC50 was > 60 µM (inconclusive) in assay [1] and 0.644 µM (active) in assay [2].
The matching figures for `Cc1ccc(SCc2ccc(C(=O)Nc3cccc([N+](=O)[O-])c3C)cc2)cc1`: > 30 µM (not active) and 1.67 µM (active).
Consider `C#CCOC(=O)c1ccccc1C(=O)n1nnc2ccccc21`, for which, in assay [3], the EC50 is 8.84 µM (active). Besides, the AC50 in assay [4] was 6.81 µM (active).
Consider `O=[N+]([O-])c1ccc(N2CCN(S(=O)(=O)c3ccc(Cl)c(Cl)c3)CC2)cc1NCCN1CCOCC1`, for which the EC50 in assay [1] is > 60 µM (not active); in assay [2], 1.68 µM (active).
`N#CC1=C(N)Oc2[nH]nc(-c3cccs3)c2C1c1cccnc1` (stereo unspecified): the EC50 in assay [3] is > 380 µM (inactive).
Consider `CN1CCN(C2=C(Cl)C(=O)N(c3ccc(Cl)cc3)C2=O)CC1`, for which, in assay [3], the EC50 is 0.247 µM (active). In addition, in assay [4], the AC50 was 1.07 µM (active).
`N#C/C(=C/N1CCOCC1)c1ccccc1`: the half-maximal activity concentration (AC50) in assay [5] was 28.2 µM (inconclusive).
Same read-out and setting: the figure for `COc1ccc(Nc2ncc3nc(-c4cccs4)c(=O)n(Cc4cccc(OC)c4)c3n2)cc1` is 39.8 µM (inconclusive).
In the case of `CCN1C(=O)c2c(C)nc3ccccc3c2C1=O`, the EC50 in assay [3] is 0.781 µM (active). The AC50 in assay [4] was 43.4 µM (active).
On to `FC(F)(F)c1cccc(Oc2nc(-c3ccccc3)nnc2C(F)(F)F)c1`, for which, in assay [3], the EC50 is 0.76 µM (active). In assay [4], the AC50 is 2.06 µM (active).
Turning to `CC1CN(c2nc3ccccc3nc2C(C#N)C(=O)OC2CCCCC2)CC(C)O1` (stereo unspecified), the values for the EC50 in assay [1] and in assay [2] were 10.6 µM (active) and 1.15 µM (active), respectively.
The matching figures for `O=C(CN(c1ccc(Br)cc1)S(=O)(=O)c1ccc(Cl)c([N+](=O)[O-])c1)NCCc1ccccc1`: > 60 µM (not active) and 0.592 µM (active).
Take `Cn1cc(C(=O)c2ccc(Cl)cc2Cl)cc1C(=O)O`: in assay [5], the AC50 was 14.1 µM (inconclusive).
With `Cn1[nH]c(CSc2ccc(Cl)cc2)cc1=O`, the EC50 in assay [3] is 10 µM (active). Moreover, in assay [4], the AC50 was 20.2 µM (active).
`Cc1cc(C)cc(C(=O)Nc2nc3ccccc3[nH]2)c1`: the results for the EC50 in assay [6] and in assay [7] were 10.6 µM (active) and 7.31 µM (active), respectively.
Regarding `O=C(Nc1nc(-c2ccco2)c(-c2ccco2)s1)c1cnccn1`, the EC50 in assay [1] was 8.94 µM (active); in assay [2], 5.79 µM (active).
Take `CC(C)c1ccc(C(=O)NC(=S)Nc2ccc3[nH]c(O)nc3c2)cc1`: the EC50 in assay [6] is 10.2 µM (active); in assay [7], 53.6 µM (active).
Turning to `COc1cc(/C=C/C(=O)OCC(=O)Nc2ccccc2Sc2ccc(Cl)cc2)ccc1O`, the EC50 in assay [3] is 3.62 µM (active). Also, the AC50 in assay [4] is > 380 µM (inactive).
The corresponding values for `CCC(=O)N/N=C(\C)CC(=O)Nc1cccc([N+](=O)[O-])c1` are 2.36 µM (active) and 23.4 µM (active).
Take `CN(C)CCC1CCN(c2cc(C#N)c(C#N)cc2[N+](=O)[O-])CC1`: the EC50 is > 60 µM (not active) in assay [1] and 0.345 µM (active) in assay [2].
As to `CN1CCc2nc(SCC(=O)Nc3ccc(OC(F)(F)F)cc3)c(C#N)c(-c3cccs3)c2C1`, the EC50 in assay [3] was 2.33 µM (active). The AC50 in assay [4] was > 380 µM (inactive).
`CC(O)CNc1nc2sc3c(c2c(=O)n1CCc1ccccc1)CCCCC3` (stereo unspecified): the EC50 in assay [1] was > 60 µM (not active); in assay [2], 1.89 µM (active).
Turning to `O=C(O)CCc1ccc(-c2ccccc2)[nH]1`, in assay [5], the AC50 is 3.16 µM (inconclusive).
For the compound `CN(C)[C@@H]1C(O)=C(C(N)=O)C(=O)[C@]2(O)C(O)=C3C(=O)c4c(O)cccc4[C@@](C)(O)[C@H]3[C@H](O)[C@@H]12`, the AC50 in assay [5] was 5.01 µM (inconclusive).
`CCNc1ncc2nc(-c3cn(C)c4ccccc34)c(=O)n(Cc3ccc(F)cc3)c2n1`: the AC50 in assay [5] was 25.1 µM (inconclusive).
On to `O=C(NC(=S)NNC(=O)[C@H]1C[C@@H]1c1ccccc1)c1ccc(F)cc1`, for which the EC50 in assay [6] is 0.775 µM (active); in assay [7] it was 1.87 µM (active).
The corresponding values for `Cc1nc(Nc2nc(O)cc(-c3ccccc3)n2)nc2ccccc12` are 4.95 µM (active) and 8.02 µM (active).
As to `Cc1nc2cnc(OCc3ccccc3)nc2n(Cc2ccc(F)cc2)c1=O`, the AC50 in assay [5] is 10 µM (inconclusive).
As for `Cc1cc(C)c(C#N)c(SCc2nnc(-c3ccccc3[N+](=O)[O-])o2)n1`, the half-maximal effective concentration (EC50) was > 60 µM (not active) in assay [1] and 2.2 µM (active) in assay [2].
For `O=C(NC1CCCC1)C(c1ccncc1)N(Cc1ccco1)C(=O)c1ccc(-c2ccccc2)[nH]1` (stereo unspecified), the results for the EC50 in assay [1] and in assay [2] were > 30 µM (not active) and 0.641 µM (active), respectively.
For `Cc1cc(N2C(=O)C(O)=C(C(=O)c3cc4ccccc4o3)C2c2cccc(Cl)c2)no1` (stereo unspecified), the figures for the EC50 in assay [6] and in assay [7] were 2.09 µM (active) and 5.36 µM (active), respectively.
As to `COc1cccc(-c2cncnc2NCc2ccccc2OC)c1`, the AC50 in assay [5] was 0.631 µM (inconclusive).

The values are drawn from ChEMBL document CHEMBL1201862, “PubChem BioAssay data set” (2004).
